Experimental data taken from patent US20240327418A1, “MULTI-TARGET INHIBITOR TARGETING HDAC AND NAD SYNTHESIS AND USE OF MULTI-TARGET INHIBITOR” (OCEAN UNIVERSITY OF CHINA, priority 2021, published 2024).

Target: NAMPT (Homo sapiens (Human), UniProt P43490)
Assay: Inhibitory activity on NAMPT
Type: biochemical
Settings: not given

Sequence of NAMPT (P43490 whole entry, species assumed): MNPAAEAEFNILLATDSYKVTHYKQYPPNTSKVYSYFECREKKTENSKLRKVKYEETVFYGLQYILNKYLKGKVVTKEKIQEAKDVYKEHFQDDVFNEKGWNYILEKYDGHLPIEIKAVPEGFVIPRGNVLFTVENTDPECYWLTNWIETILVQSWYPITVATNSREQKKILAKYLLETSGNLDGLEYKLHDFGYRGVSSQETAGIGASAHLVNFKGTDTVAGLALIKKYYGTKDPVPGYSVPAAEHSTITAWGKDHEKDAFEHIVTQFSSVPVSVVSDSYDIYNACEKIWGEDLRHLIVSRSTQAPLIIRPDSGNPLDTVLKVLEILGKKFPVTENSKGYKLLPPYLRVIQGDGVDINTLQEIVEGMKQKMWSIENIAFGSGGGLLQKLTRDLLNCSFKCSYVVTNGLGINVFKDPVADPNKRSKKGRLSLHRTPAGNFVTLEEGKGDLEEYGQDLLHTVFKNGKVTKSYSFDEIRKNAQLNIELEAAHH

SMILES | inhibitory activity against NAMPT (in words)
CCCNNC(=O)c1ccc(CNC(=O)/C=C/c2cccnc2)cc1 [LEE12, (E)-N-(4-(2-propylhydrazino-1-carbonyl)benzyl)-3-(pyridin-3-yl) acrylamide] | micromolar level

Same assay, conditions: mean of three independent experiments

SMILES | IC50 [nM]
CCCNNC(=O)c1ccc(CNC(=O)/C=C/c2cccnc2)cc1 [LEE12, (E)-N-(4-(2-propylhydrazino-1-carbonyl)benzyl)-3-(pyridin-3-yl) acrylamide] | 6570

Tested on: acute myelogenous leukemia cells MV4-11
Assay: GI50 and LC50 by NCI method, MV4-11
Type: cell-based
Settings: Homo sapiens, 48 hours, Cell Titer-Blue
Method: (§1) The median growth inhibitory concentration (GI50) and median lethal concentration (LC50) were determined by NCI method. Leukemia cell strains MV4-11, HL60, PL21, KASUMI-1, MONO-MAC-1 and NB-4 were cultured in an Iscove's Modified Dulbecco Medium (IMDM) containing 10% fetal bovine serum, were inoculated into a 96-well cell culture plate at a density of 10,000 cells/100 μL and cultured overnight. 6 wells were selected as Tz wells, 0.125 mg/mL Cell Titer-Blue dye was added, and the cells were cultured for 4 hours and then the fluorescence intensity at […] (excitation wavelength/emission wavelength) was read. Compounds of different concentrations were added to the remaining wells, and a 100% control group was set. After 48 hours of cultivation, 0.125 mg/mL Cell Titer-Blue dye was added and the fluorescence intensity at […] was read after 4 hours. The fluorescence intensity of the dosing group was represented by Ti, the fluorescence intensity of the 100% control group was represented by C, and the fluorescence intensity before dosing was represented by Tz.
(§2) If Ti≥Tz, the formula [(Ti−Tz)/(C−Tz)]×100 was used.
(§3) If Ti<Tz, the formula [(Ti−Tz)/Tz]×100 was used.
(§4) The GI50 and LC50 values of some compounds on leukemia cell strains MV4-11, HL60, PL21, KASUMI-1, MONO-MAC-1 and NB-4 are shown in FIG. 1, Table 3, FIG. 2, and Table 4.

SMILES | GI50 [nM] | LC50 (median lethal concentration) [nM]
CCCNNC(=O)c1ccc(CNC(=O)/C=C/c2cccnc2)cc1 [LEE12, (E)-N-(4-(2-propylhydrazino-1-carbonyl)benzyl)-3-(pyridin-3-yl) acrylamide] | 38.3 | 218
CCCNNC(=O)c1ccc(CNC(=O)c2cc3ccccc3s2)cc1 [LEE17, N-(4-(2-propylhydrazino-1-carbonyl)benzyl)benzo[b]thiophene-2-carboxyamide] | 20.3 | 57.1
CCCNNC(=O)c1ccc(CNC(=O)c2cc3ccccc3o2)cc1 [LEE16, N-(4-(2-propylhydrazino-1-carbonyl)benzyl)benzofuran-2-carboxyamide] | 30 | 57.8

Tested on: acute myelogenous leukemia cells HL60
Assay: GI50 and LC50 by NCI method, HL60
Type: cell-based
Settings: not given
Method: as §1, §2, §3, §4

SMILES | LC50 values in p53-null cell strain HL60 (in words)
CCCNNC(=O)c1ccc(CNC(=O)/C=C/c2cccnc2)cc1 [LEE12, (E)-N-(4-(2-propylhydrazino-1-carbonyl)benzyl)-3-(pyridin-3-yl) acrylamide] | nanomolar level

Same assay, conditions: Homo sapiens, HL-60; 48 hours, Cell Titer-Blue

SMILES | CC50 [nM] | GI50 [nM]
CCCNNC(=O)c1ccc(CNC(=O)/C=C/c2cccnc2)cc1 [LEE12, (E)-N-(4-(2-propylhydrazino-1-carbonyl)benzyl)-3-(pyridin-3-yl) acrylamide] | 591 | 42.1
CCCNNC(=O)c1ccc(CNC(=O)c2cc3ccccc3s2)cc1 [LEE17, N-(4-(2-propylhydrazino-1-carbonyl)benzyl)benzo[b]thiophene-2-carboxyamide] | > 10000 | 58.7
CCCNNC(=O)c1ccc(CNC(=O)c2cc3ccccc3o2)cc1 [LEE16, N-(4-(2-propylhydrazino-1-carbonyl)benzyl)benzofuran-2-carboxyamide] | > 10000 | 75.2

Tested on: leukemia cell line PL21
Assay: GI50 and LC50 by NCI method, PL21
Type: cell-based
Settings: PL-21; 48 hours, Cell Titer-Blue
Method: as §1, §2, §3, §4

SMILES | GI50 [nM] | LC50 (median lethal concentration) [nM]
CCCNNC(=O)c1ccc(CNC(=O)/C=C/c2cccnc2)cc1 [LEE12, (E)-N-(4-(2-propylhydrazino-1-carbonyl)benzyl)-3-(pyridin-3-yl) acrylamide] | 259 | 3820
CCCNNC(=O)c1ccc(CNC(=O)c2cc3ccccc3s2)cc1 [LEE17, N-(4-(2-propylhydrazino-1-carbonyl)benzyl)benzo[b]thiophene-2-carboxyamide] | 74.3 | > 10000
CCCNNC(=O)c1ccc(CNC(=O)c2cc3ccccc3o2)cc1 [LEE16, N-(4-(2-propylhydrazino-1-carbonyl)benzyl)benzofuran-2-carboxyamide] | 34.3 | > 10000

Tested on: leukemia cell line KASUMI-1
Assay: GI50 and LC50 by NCI method, KASUMI-1
Type: cell-based
Settings: Homo sapiens, 48 hours, Cell Titer-Blue
Method: as §1, §2, §3, §4

SMILES | GI50 [nM] | LC50 [nM]
CCCNNC(=O)c1ccc(CNC(=O)/C=C/c2cccnc2)cc1 [LEE12, (E)-N-(4-(2-propylhydrazino-1-carbonyl)benzyl)-3-(pyridin-3-yl) acrylamide] | 13.5 | 285
CCCNNC(=O)c1ccc(CNC(=O)c2cc3ccccc3s2)cc1 [LEE17, N-(4-(2-propylhydrazino-1-carbonyl)benzyl)benzo[b]thiophene-2-carboxyamide] | 25.3 | 7320
CCCNNC(=O)c1ccc(CNC(=O)c2cc3ccccc3o2)cc1 [LEE16, N-(4-(2-propylhydrazino-1-carbonyl)benzyl)benzofuran-2-carboxyamide] | 15.3 | 5360

Tested on: leukemia cell line MONO-MAC-1
Assay: GI50 and LC50 by NCI method, MONO-MAC-1
Type: cell-based
Settings: 48 hours, Cell Titer-Blue
Method: as §1, §2, §3, §4

SMILES | CC50 [nM] | GI50 [nM]
CCCNNC(=O)c1ccc(CNC(=O)/C=C/c2cccnc2)cc1 [LEE12, (E)-N-(4-(2-propylhydrazino-1-carbonyl)benzyl)-3-(pyridin-3-yl) acrylamide] | 9030 | 73.7
CCCNNC(=O)c1ccc(CNC(=O)c2cc3ccccc3s2)cc1 [LEE17, N-(4-(2-propylhydrazino-1-carbonyl)benzyl)benzo[b]thiophene-2-carboxyamide] | > 10000 | 33.2
CCCNNC(=O)c1ccc(CNC(=O)c2cc3ccccc3o2)cc1 [LEE16, N-(4-(2-propylhydrazino-1-carbonyl)benzyl)benzofuran-2-carboxyamide] | > 10000 | 25.3

Tested on: leukemia cell line NB-4
Assay: GI50 and LC50 by NCI method, NB-4
Type: cell-based
Settings: 48 hours, Cell Titer-Blue; read-out: NB4 GI50
Method: as §1, §2, §3, §4

SMILES | GI50 [nM]
CCCNNC(=O)c1ccc(CNC(=O)/C=C/c2cccnc2)cc1 [LEE12, (E)-N-(4-(2-propylhydrazino-1-carbonyl)benzyl)-3-(pyridin-3-yl) acrylamide] | 22.8
CCCNNC(=O)c1ccc(CNC(=O)c2cc3ccccc3s2)cc1 [LEE17, N-(4-(2-propylhydrazino-1-carbonyl)benzyl)benzo[b]thiophene-2-carboxyamide] | 51.2
CCCNNC(=O)c1ccc(CNC(=O)c2cc3ccccc3o2)cc1 [LEE16, N-(4-(2-propylhydrazino-1-carbonyl)benzyl)benzofuran-2-carboxyamide] | 42.3

Same assay, conditions: 48 hours, Cell Titer-Blue; read-out: NB4 LC50

SMILES | LC50 (median lethal concentration) [nM]
CCCNNC(=O)c1ccc(CNC(=O)/C=C/c2cccnc2)cc1 [LEE12, (E)-N-(4-(2-propylhydrazino-1-carbonyl)benzyl)-3-(pyridin-3-yl) acrylamide] | 2300
CCCNNC(=O)c1ccc(CNC(=O)c2cc3ccccc3s2)cc1 [LEE17, N-(4-(2-propylhydrazino-1-carbonyl)benzyl)benzo[b]thiophene-2-carboxyamide] | > 10000
CCCNNC(=O)c1ccc(CNC(=O)c2cc3ccccc3o2)cc1 [LEE16, N-(4-(2-propylhydrazino-1-carbonyl)benzyl)benzofuran-2-carboxyamide] | > 10000

Tested on: HCT116 tumor
Assay: In vivo anti-colon cancer activity, HCT116 tumor bearing model
Set-up: species or system nude mice
Settings: 8 mg/kg/d

SMILES | change in the weight of the nude mice at the end of the experiment (in words)
CCCNNC(=O)c1ccc(CNC(=O)c2cc3ccccc3s2)cc1 [LEE17, N-(4-(2-propylhydrazino-1-carbonyl)benzyl)benzo[b]thiophene-2-carboxyamide] | no significant change

Same assay, conditions: HCT116 tumor bearing nude mice; LEE17 orally 8 mg/kg/d

SMILES | Relative tumor proliferation rate (T/C %) [%] | Tumor inhibitory rate (TGI %) [%] | Weight of nude mice at the end of the experiment [g]
CCCNNC(=O)c1ccc(CNC(=O)c2cc3ccccc3s2)cc1 [LEE17, N-(4-(2-propylhydrazino-1-carbonyl)benzyl)benzo[b]thiophene-2-carboxyamide] | 14.8 | 85.5 | 19.04 ± 1.31

Tested on: MV4-11 tumor
Assay: In vivo anti-leukemia activity, MV4-11 tumor bearing model
Settings: MV4-11 tumor bearing nude mice; 4 mg/kg/d, day 23; panobinostat intraperitoneal

SMILES | Relative tumor proliferation rate (T/C %) [%] | Tumor inhibitory rate (TGI %) [%]
CCCNNC(=O)c1ccc(CNC(=O)c2cc3ccccc3o2)cc1 [LEE16, N-(4-(2-propylhydrazino-1-carbonyl)benzyl)benzofuran-2-carboxyamide] | 25.4 | 78.4

Tested on: not listed separately
Assay: Pharmacokinetic properties in mice
Type: in vivo
Settings: mouse, plasma, po 20 mg/kg single dose

SMILES | AUC(0-t) [ng·h/mL] | Tmax [h]
CCCNNC(=O)c1ccc(CNC(=O)c2cc3ccccc3s2)cc1 [LEE17, N-(4-(2-propylhydrazino-1-carbonyl)benzyl)benzo[b]thiophene-2-carboxyamide] | 27600 | 0.25
CCCNNC(=O)c1ccc(CNC(=O)c2cc3ccccc3o2)cc1 [LEE16, N-(4-(2-propylhydrazino-1-carbonyl)benzyl)benzofuran-2-carboxyamide] | 129000 | 0.5

Same assay, conditions: mouse, plasma, po 20 mg/kg single dose, read-out: Cmax

SMILES | Cmax [ng/mL]
CCCNNC(=O)c1ccc(CNC(=O)c2cc3ccccc3s2)cc1 [LEE17, N-(4-(2-propylhydrazino-1-carbonyl)benzyl)benzo[b]thiophene-2-carboxyamide] | 9460
CCCNNC(=O)c1ccc(CNC(=O)c2cc3ccccc3o2)cc1 [LEE16, N-(4-(2-propylhydrazino-1-carbonyl)benzyl)benzofuran-2-carboxyamide] | 34400

Same assay, conditions: mouse, plasma, po 20 mg/kg single dose, read-out: t½ (converted)

SMILES | half-life [h]
CCCNNC(=O)c1ccc(CNC(=O)c2cc3ccccc3s2)cc1 [LEE17, N-(4-(2-propylhydrazino-1-carbonyl)benzyl)benzo[b]thiophene-2-carboxyamide] | 4.46
CCCNNC(=O)c1ccc(CNC(=O)c2cc3ccccc3o2)cc1 [LEE16, N-(4-(2-propylhydrazino-1-carbonyl)benzyl)benzofuran-2-carboxyamide] | 6.03

Same assay, conditions: po 20 mg/kg vs iv 5 mg/kg

SMILES | F [%]
CCCNNC(=O)c1ccc(CNC(=O)c2cc3ccccc3s2)cc1 [LEE17, N-(4-(2-propylhydrazino-1-carbonyl)benzyl)benzo[b]thiophene-2-carboxyamide] | 64.6
CCCNNC(=O)c1ccc(CNC(=O)c2cc3ccccc3o2)cc1 [LEE16, N-(4-(2-propylhydrazino-1-carbonyl)benzyl)benzofuran-2-carboxyamide] | 111

Tested on: cell death
Assay: NMN reversal of cell death caused by compounds (FIG. 4)
Type: cell-based
Settings: NMN is nicotinamide mononucleotide

SMILES | effect of NMN on cell death caused by the compound
CCCNNC(=O)c1ccc(CNC(=O)/C=C/c2cccnc2)cc1 [LEE12, (E)-N-(4-(2-propylhydrazino-1-carbonyl)benzyl)-3-(pyridin-3-yl) acrylamide] | reversal effect

Target: HDAC1 (Homo sapiens (Human), UniProt Q13547)
Assay: Inhibitory activity on HDAC1 (fluorescence enzyme assay)
Settings: read-out: IC50 HDAC1; mean of three independent experiments

Sequence of HDAC1 (Q13547 whole entry, species assumed): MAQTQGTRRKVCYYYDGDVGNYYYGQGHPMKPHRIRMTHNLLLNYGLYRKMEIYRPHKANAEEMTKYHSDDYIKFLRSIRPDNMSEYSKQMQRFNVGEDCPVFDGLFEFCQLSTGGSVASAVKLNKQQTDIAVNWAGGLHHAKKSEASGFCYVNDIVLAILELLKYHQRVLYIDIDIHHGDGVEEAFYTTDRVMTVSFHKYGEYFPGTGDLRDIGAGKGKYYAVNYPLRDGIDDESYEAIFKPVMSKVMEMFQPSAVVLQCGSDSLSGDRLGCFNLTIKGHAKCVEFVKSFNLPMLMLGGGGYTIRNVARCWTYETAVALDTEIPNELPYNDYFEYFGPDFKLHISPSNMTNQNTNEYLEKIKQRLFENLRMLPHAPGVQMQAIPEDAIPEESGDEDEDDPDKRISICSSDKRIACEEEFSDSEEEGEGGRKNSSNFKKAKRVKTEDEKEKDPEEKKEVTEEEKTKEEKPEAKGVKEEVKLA

SMILES | IC50 [nM]
CCCNNC(=O)c1ccc(CNC(=O)/C=C/c2cccnc2)cc1 [LEE12, (E)-N-(4-(2-propylhydrazino-1-carbonyl)benzyl)-3-(pyridin-3-yl) acrylamide] | 25.1
CCCNNC(=O)c1ccc(CNC(=O)c2cc3ccccc3s2)cc1 [LEE17, N-(4-(2-propylhydrazino-1-carbonyl)benzyl)benzo[b]thiophene-2-carboxyamide] | 3.79
CCCNNC(=O)c1ccc(CNC(=O)c2cc3ccccc3o2)cc1 [LEE16, N-(4-(2-propylhydrazino-1-carbonyl)benzyl)benzofuran-2-carboxyamide] | 3.01

Target: HDAC2 (Homo sapiens (Human), UniProt Q92769)
Assay: Inhibitory activity on HDAC2 (fluorescence enzyme assay)
Settings: read-out: IC50 HDAC2; mean of three independent experiments

Sequence of HDAC2 (Q92769 whole entry, species assumed): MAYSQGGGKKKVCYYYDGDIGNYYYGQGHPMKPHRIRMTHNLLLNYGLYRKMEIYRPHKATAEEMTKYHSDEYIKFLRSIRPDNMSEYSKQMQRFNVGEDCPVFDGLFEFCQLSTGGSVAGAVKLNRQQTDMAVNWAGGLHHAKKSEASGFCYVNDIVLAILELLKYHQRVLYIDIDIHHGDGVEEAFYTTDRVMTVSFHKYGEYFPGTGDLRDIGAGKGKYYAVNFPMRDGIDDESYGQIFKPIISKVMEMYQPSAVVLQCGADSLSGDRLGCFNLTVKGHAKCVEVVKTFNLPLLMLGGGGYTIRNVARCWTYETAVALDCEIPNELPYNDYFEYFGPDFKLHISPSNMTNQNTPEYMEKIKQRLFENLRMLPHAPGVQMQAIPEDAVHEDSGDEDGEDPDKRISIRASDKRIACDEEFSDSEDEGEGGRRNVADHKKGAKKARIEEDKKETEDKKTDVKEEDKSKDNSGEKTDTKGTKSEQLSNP

SMILES | IC50 [nM]
CCCNNC(=O)c1ccc(CNC(=O)/C=C/c2cccnc2)cc1 [LEE12, (E)-N-(4-(2-propylhydrazino-1-carbonyl)benzyl)-3-(pyridin-3-yl) acrylamide] | 141
CCCNNC(=O)c1ccc(CNC(=O)c2cc3ccccc3s2)cc1 [LEE17, N-(4-(2-propylhydrazino-1-carbonyl)benzyl)benzo[b]thiophene-2-carboxyamide] | 16.9
CCCNNC(=O)c1ccc(CNC(=O)c2cc3ccccc3o2)cc1 [LEE16, N-(4-(2-propylhydrazino-1-carbonyl)benzyl)benzofuran-2-carboxyamide] | 18.5

Target: HDAC3 (Homo sapiens (Human), UniProt O15379)
Assay: Inhibitory activity on HDAC3 (fluorescence enzyme assay)
Settings: read-out: IC50 HDAC3; mean of three independent experiments

Sequence of HDAC3 (O15379 whole entry, species assumed): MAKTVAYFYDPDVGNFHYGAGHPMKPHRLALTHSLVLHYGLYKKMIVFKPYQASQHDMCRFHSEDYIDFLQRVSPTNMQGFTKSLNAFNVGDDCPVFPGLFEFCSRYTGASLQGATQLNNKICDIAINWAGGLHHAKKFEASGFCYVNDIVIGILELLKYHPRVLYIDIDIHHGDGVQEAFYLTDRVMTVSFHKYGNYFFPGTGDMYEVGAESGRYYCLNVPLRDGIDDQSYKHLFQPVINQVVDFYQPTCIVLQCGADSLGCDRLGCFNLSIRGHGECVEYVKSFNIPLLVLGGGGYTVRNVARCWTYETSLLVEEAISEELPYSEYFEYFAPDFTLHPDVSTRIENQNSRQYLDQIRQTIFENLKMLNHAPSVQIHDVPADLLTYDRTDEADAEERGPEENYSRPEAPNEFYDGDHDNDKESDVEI
Sequence of HDAC3 (Q9Y618 395-489 partner, species assumed): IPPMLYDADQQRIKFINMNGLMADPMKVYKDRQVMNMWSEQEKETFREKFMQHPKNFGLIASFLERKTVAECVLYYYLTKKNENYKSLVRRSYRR

SMILES | IC50 [nM]
CCCNNC(=O)c1ccc(CNC(=O)/C=C/c2cccnc2)cc1 [LEE12, (E)-N-(4-(2-propylhydrazino-1-carbonyl)benzyl)-3-(pyridin-3-yl) acrylamide] | 3.12
CCCNNC(=O)c1ccc(CNC(=O)c2cc3ccccc3s2)cc1 [LEE17, N-(4-(2-propylhydrazino-1-carbonyl)benzyl)benzo[b]thiophene-2-carboxyamide] | 0.551
CCCNNC(=O)c1ccc(CNC(=O)c2cc3ccccc3o2)cc1 [LEE16, N-(4-(2-propylhydrazino-1-carbonyl)benzyl)benzofuran-2-carboxyamide] | 0.435
